Data: patent US4731109A, “Herbicidal 2-haloacetanilides” (Monsanto Company, priority 1982, dated 1988)

Assays:
Experiment in all cases: Greenhouse pre-emergence GR15/GR85 selectivity test
Type in all cases: in vivo
[1] = test system: seedling johnsongrass
Summary of the method: (§1)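 Top soil was compacted in pans, seeds placed on the surface, and the covering soil mixed with a known quantity of active ingredient before being spread over them. After an initial overhead watering, pans were subirrigated and scored 2-3 weeks later.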

[2] = test system: itchgrass
Summary of the method: as §1

[3] = test system: alexandergrass
Summary of the method: as §1

[4] = test system: red rice
Summary of the method: as §1

[5] = test system: shattercane
Summary of the method: as §1

[6] = test system: Texas panicum
Summary of the method: as §1

[7] = test system: prickly sida; settings: Table XV; for selectivity factor (GR15/GR85): in rape
Summary of the method: (§2)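 Pre-emergence soil-incorporation test: seeded pans were covered with topsoil mixed with active ingredient (in solvent or as wettable powder), overhead-irrigated (0.64 cm) or not, then subirrigated. Plants were scored about 2-3 weeks after treatment. GR15/GR85 rates are in kg/ha, and selectivity factor is crop GR15 divided by weed GR85.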

[8] = test system: common ragweed; settings: Table XV; for selectivity factor (GR15/GR85): in rape
Summary of the method: as §2

[9] = test system: common purslane; settings: Table XV; for selectivity factor (GR15/GR85): in rape
Summary of the method: as §2

[10] = test system: redroot pigweed; settings: Table XV; for selectivity factor (GR15/GR85): in rape
Summary of the method: as §2

[11] = test system: peanuts; settings: Table XVI
From the text: (§3) A good grade of top soil is placed in aluminum pans and compacted to a depth of three-eighths to one-half inch from the top of the pan. On the top of the soil is placed a number of seeds or vegetative propagules of various plant species. The soil required to level fill the pans after seeding or adding vegetative propagules is weighed into a pan. The soil and a known amount of the active ingredient applied in a solvent or as a wettable powder suspension are thoroughly mixed, and used to cover the prepared pans. After treatment, the pans are given an initial overhead irrigation of eater, equivalent to one-fourth inch (0.64 cm) rainfall, then watered by subirrigation as need to give adequate moisture for germination and growth. As an alternative procedure, the overhead irrigation may be omitted. Observations are made about 2-3 weeks after seeding and treatment.
(§4) In the discussion and tables of data below, reference is made to herbicide application rates symbolized as "GR15 " and "GR85 "; these rates are given in kilograms per hectare (kg/ha) which are convertible into pounds per acre (lbs/A) by dividing the kg/ha rate by 1.12.
(§5) A further guide to the effectiveness of a chemical as a selective herbicide is the "selectivity factor" ("SF") for a herbicide in given crops and weeds. The selectivity factor is a measure of the relative degree of crop safety and weed injury and is expressed in terms of the GR15 /GR85 ratio, i.e., the GR15 rate for the crop divided by the GR85 rate for the weed, both rates in kg/ha (lb/A). In the tables below, selectivity factors are shown in parenthesis following the GR85 rate for each weed; the symbol "NS" indicates "non-selective". Marginal or undetermined selectivity is indicated by a dash (--).
(§6) Additionally, pre-emergence herbicidal data from other tests have established that compounds according to this invention also selectively suppress quackgrass, yellow nutsedge and/or other weeds in one or more of the crops cotton, peanuts, bush beans and/or rape. For example, in Table VI are presented data showing the herbicidal selectivity of the compounds of Examples 1 and 2 against quackgrass in rape and snap beans. Unless otherwise noted; greenhouse tests in Table VI and in other tables below involved herbicide treatments by soil incorporation and an initial overhead irrigation followed by subirrigation as described above.
(§7) Additional greenhouse tests were made to test certain compounds of this invention against a plurality of problem weeds in peanuts and lima beans; except for fall panicum, the test weeds are particularly resistant weeds; the test data is set forth in Table XVI.
(§8) In Table XVI, the selectivity factors for the test compounds for each weed in lima beans is shown as the first or upper value in parenthesis and the selectivity factors for each weed in peanuts is shown as the second or lower value in parenthesis for each compound. For example, the selectivity factor for the compound of Example 3 for seedling johnsongrass in lima beans is 2.1 and in peanuts, >4.9; the selectivity factor for Texas panicum in lima beans is 1.1 and in peanuts, >2.6, etc.

[12] = test system: lima beans; settings: Table XVI
From the text: as §3, §4, §5, §6, §7, §8

Compound	GR85 Rate ([1]; Table XVI) [Kg/Ha]	selectivity factor (GR15/GR85) ([1]; in lima beans, Table XVI)	selectivity factor (GR15/GR85) ([1]; in peanuts, Table XVI)	GR85 Rate ([2]; Table XVI) [Kg/Ha]	selectivity factor (GR15/GR85) ([2]; in lima beans, Table XVI)	selectivity factor (GR15/GR85) ([2]; in peanuts, Table XVI)	GR85 Rate ([3]; Table XV) [Kg/Ha]	selectivity factor (GR15/GR85) ([3]; in rape, Table XV)	GR85 Rate ([4]; Table XVI) [Kg/Ha]	selectivity factor (GR15/GR85) ([4]; in lima beans, Table XVI)	selectivity factor (GR15/GR85) ([4]; in peanuts, Table XVI)	GR85 Rate ([5]; Table XVI) [Kg/Ha]	selectivity factor (GR15/GR85) ([5]; in lima beans, Table XVI)	selectivity factor (GR15/GR85) ([5]; in peanuts, Table XVI)	GR85 Rate ([6]; Table XVI) [Kg/Ha]	selectivity factor (GR15/GR85) ([6]; in lima beans, Table XVI)	selectivity factor (GR15/GR85) ([6]; in peanuts, Table XVI)	GR85 Rate [7] [Kg/Ha]	GR85 Rate [8] [Kg/Ha]	GR85 Rate [9] [Kg/Ha]	also measured
CCCOCN(C(=O)CCl)c1c(CC)cccc1C(F)(F)F [Example 10, N--(n-propoxymethyl)-2'-trifluoromethyl-6'-ethyl-2-chloroacetanilide]	0.36	> 3.1	2.7	0.90	> 1.2	1.1	0.36	> 3.1	0.98	> 1.1	1	0.56	> 2	1.8	1.1	> 1	NS (non-selective)	> 1.12	> 1.12	> 1.12	GR85 Rate [10]: 0.70 Kg/Ha; selectivity factor (GR15/GR85) [10]: > 1.6; GR15 Rate [11]: 0.98 Kg/Ha; GR15 Rate [12]: > 1.12 Kg/Ha
Cc1cccc(C(F)(F)F)c1N(COCC(C)C)C(=O)CCl [Example 5, N--(isobutoxymethyl)-2'-trifluoromethyl-6'-methyl-2-chloroacetanilide]	0.37	> 3	1.5	0.56	> 2	1	0.7	> 1.6	0.53	> 2.1	1.1	0.56	> 2	1	0.53	> 2.1	1.1	> 1.12	0.98	> 1.12	selectivity factor (GR15/GR85) [8]: > 1.1; GR85 Rate [10]: 0.50 Kg/Ha; selectivity factor (GR15/GR85) [10]: > 2.2; GR15 Rate [11]: 0.56 Kg/Ha; GR15 Rate [12]: > 1.12 Kg/Ha
CCOCN(C(=O)CCl)c1c(C)cccc1C(F)(F)F [Example 1, N-(ethoxymethyl)-2'-trifluoromethyl-6'-methyl-2-chloroacetanilide]																					GR85 Rate ([1]; Table XIV): 0.14 Kg/Ha; selectivity factor (GR15/GR85) ([1]; in soybeans, Table XIV): > 8.0; GR85 Rate ([2]; Table XIV): 1.1 Kg/Ha; selectivity factor (GR15/GR85) ([2]; in soybeans, Table XIV): > 1.0; GR85 Rate ([3]; Table XIV): 0.56 Kg/Ha; selectivity factor (GR15/GR85) ([3]; in soybeans, Table XIV): > 2.0; GR85 Rate ([4]; Table XIV): 0.2 Kg/Ha; selectivity factor (GR15/GR85) ([4]; in soybeans, Table XIV): > 5.5; GR85 Rate ([5]; Table XIV): 0.28 Kg/Ha; selectivity factor (GR15/GR85) ([5]; in soybeans, Table XIV): > 4.0; GR85 Rate ([6]; Table XIV): 1.1 Kg/Ha; selectivity factor (GR15/GR85) ([6]; in soybeans, Table XIV): > 1.0
CCCOCN(C(=O)CCl)c1c(C)cccc1C(F)(F)F [Example 3, N--(n-propoxymethyl)-2'-trifluoromethyl-6'-methyl-2-chloroacetanilide]	0.23	2.1	> 4.9	0.51	NS (non-selective)	> 2.2	0.14	6.3	0.37	1.3	> 3	0.11	4.5	> 10.2	0.43	1.1	> 2.6	> 1.12	0.49	0.70	selectivity factor (GR15/GR85) [7]: NS (non-selective); selectivity factor (GR15/GR85) [8]: 1.8; selectivity factor (GR15/GR85) [9]: 1.3; GR85 Rate [10]: 0.39 Kg/Ha; selectivity factor (GR15/GR85) [10]: 2.3; GR15 Rate [11]: > 1.12 Kg/Ha; GR15 Rate [12]: 0.49 Kg/Ha
CC(C)OCN(C(=O)CCl)c1ccccc1C(F)(F)F [Example 2, N--(isopropoxymethyl)-2'-trifluoromethyl-2-chloroacetanilide]																					GR85 Rate ([1]; Table XIV): 0.28 Kg/Ha; selectivity factor (GR15/GR85) ([1]; in soybeans, Table XIV): > 4.0; GR85 Rate ([2]; Table XIV): > 1.1 Kg/Ha; GR85 Rate ([3]; Table XIV): > 1.1 Kg/Ha; GR85 Rate ([4]; Table XIV): 0.14 Kg/Ha; selectivity factor (GR15/GR85) ([4]; in soybeans, Table XIV): > 8.0; GR85 Rate ([5]; Table XIV): 0.93 Kg/Ha; selectivity factor (GR15/GR85) ([5]; in soybeans, Table XIV): > 1.12; GR85 Rate ([6]; Table XIV): > 1.12 Kg/Ha
CCOCN(C(=O)CCl)c1c(CC)cccc1C(F)(F)F [Example 9, N--(ethoxymethyl)-2'-trifluoromethyl-6'-ethyl-2-chloroacetanilide]	0.25	3	3.6	0.53	1.4	1.7	0.19	5.2	0.42	1.8	2.1	0.21	3.6	4.3	0.56	1.3	1.6	> 1.12	> 1.12	0.78	selectivity factor (GR15/GR85) [7]: NS (non-selective); selectivity factor (GR15/GR85) [8]: NS (non-selective); selectivity factor (GR15/GR85) [9]: 1.3; GR85 Rate [10]: 0.70 Kg/Ha; selectivity factor (GR15/GR85) [10]: 1.4; GR15 Rate [11]: 0.90 Kg/Ha; GR15 Rate [12]: 0.75 Kg/Ha
Cc1cccc(C(F)(F)F)c1N(COC(C)C)C(=O)CCl [Example 4, N--(isopropoxymethyl)-2'-trifluoromethyl-6'-methyl-2-chloroacetanilide]	0.51	> 2.2	1.9	0.50	> 2.2	2	0.42	> 2.7	0.42	> 2.7	2.3	0.51	> 2.2	1.9	0.56	> 2	1.8	> 1.12	1.03	> 1.12	selectivity factor (GR15/GR85) [8]: > 1.1; GR85 Rate [10]: 0.50 Kg/Ha; selectivity factor (GR15/GR85) [10]: > 2.2; GR15 Rate [11]: 0.98 Kg/Ha; GR15 Rate [12]: > 1.12 Kg/Ha
